# Test results: patent publication US20250346943A1, “DEGRADER COMPOUNDS OF QSOX1 mRNA” (UNIVERSITY OF FLORIDA RESEARCH FOUNDATION, INCORPORATED, priority 2022, published 2025)
# Experiments:
# MDA-MB-231 cells = experiment: Proliferation assay; type: cell-based, human; conditions: 48 h treatment
# Method: Proliferation Assay. MDA-MB-231 cells were seeded in 96-well plates (Corning) at ˜40% confluency and treated with compound or transfected with ASO as described in Cell Culture. Compound was replenished every 16 h by replacing all the growth medium with freshly prepared medium containing same concentration of compounds. After 48 h total treatment period, proliferation was measured by using CellTiter 96 AQueous One Solution Cell Proliferation Assay (Cat #G3582, Promega) per manufacturer's protocol.
# [1] = target: QSOX1 5′UTR hairpin (model of the QSOX1-a binding site); experiment: In vitro binding by fluorescence polarization, Cy5-labeled WT RNA; set-up: species or system human
# Method: (§1) In Vitro Binding by Measuring Changes in Fluorescence Polarization. Cy5-labeled RNA was folded by heating at 95° C. for 2 min in 1× Folding Buffer and cooled on ice. Serial dilutions of F1 (200 to 0.4 μM, 1:1 dilutions) were prepared in 1× Folding Buffer with 4% (w/v) bovine serum albumin (BSA) with constant DMSO concentration (2% v/v). The compound solutions (10 μL) were added to a well of non-binding 384-well plate (Corning). An equal volume of folded RNA was adding to each well with a final concentration of 50 nM. The samples were incubated at room temperature for 30 min, and then fluorescence polarization was measured with a Molecular Devices SpectraMax M5 plate reader with an excitation wavelength of 640 nm and an emission wavelength of 680 nm.
# [2] = tested on: proteins of MDA-MB-231 cells (human proteome); experiment: Proteomics analysis of proteins cross-linked in MDA-MB-231 cells; type: cell-based; conditions: of the 3,158 proteins detectable before pull-down
# Method: Proteomic Sample Preparation and Analysis. MDA-MB-231 cells were seeded in 60 mm dishes and allowed to reach ˜80% confluency. The cells were then treated with […] of compound in growth medium and incubated for 16 h. Cells were washed with 1×DPBS and irradiated with UV light for 10 min. For each condition, two biological replicates were prepared, and each biological replicate was split into three technical replicates. […]
# Pulled-down proteins were released from beads by resuspending in 6 M urea/1×PBS (0.5 mL) supplemented with 10 mM of TCEP at room temperature for 30 min. […] To the samples was added 1 volume of isopropanol containing 1% (v/v) trifluoroacetic acid, followed by a styrenedivinylbenzene reverse-phase sulfonate (SDB-RPS) StageTip 12 Peptides were resuspended in 0.1% (v/v) formic acid (FA) in water and analyzed using Proxeon EASY-nLC 1200 nano-UHPLC coupled to QExactive HF-X Quadrupole-Orbitrap mass spectrometer (Thermo Scientific). […]
# The MS data were analyzed with MaxQuant13 (V1.6.1.0) and searched against the human proteome (Uniprot) and a common list of contaminants included in MaxQuant. […] The minimum peptide length was set to six amino acids and peptide re-quantification was enabled with the minimal number of peptides per protein set to 2. […]
# [3] = tested on: mutant RNA lacking U-bulge (fully paired RNA); experiment: In vitro binding by fluorescence polarization, Cy5-labeled mutant RNA
# Method: as §1
# [4] = tested on: DNA and proteins in MDA-MB-231 cells; experiment: Cross-linking to RNA, DNA and proteins in live cells with clickable TAMRA azide; type: cell-based, human; conditions: 16 h, TAMRA imaging
# Method: Cross-linking to RNA, DNA, and Proteins in Live Cells with Clickable TAMRA Azide. MDA-MB-231 cells were seeded in 100 mm dishes and allowed to reach ˜80% confluency. The cells were then treated with […] of compound in growth medium and incubated for 16 h. Cells were washed with 1×DPBS and irradiated with UV light for 10 min. Total RNA was harvested using a Zymo Quick-RNA Miniprep Kit per the manufacturer's protocol with DNase and proteinase treatment. Total DNA was harvested using a Zymo Quick-DNA Miniprep Kit per the manufacturer's protocol with RNase and proteinase treatment. Total protein was harvested by using Mammalian Protein Extraction Reagent (M-PER, Thermo Scientific) per the manufacturer's protocol with RNase and DNase treatment. Each sample (4 μg for RNA or DNA, 25 μg for proteins) was then incubated in a “click reaction mixture” with TAMRA azide as described in In Vitro Screening of Functionalized Compounds with Clickable TAMRA Azide. DNA and RNA samples were separated by using a 1.0% (w/v) and 1.5% (w/v) agarose gel in TBE buffer, respectively. Protein samples were loaded to 10% SDS-polyacrylamide gel. All samples were first imaged with TAMRA channel by using a Typhoon FLA 9500 variable mode imager (GE Healthcare Life Sciences). […]
Compound,antiproliferative activity compared to F1-Amide delivered at twice the dose (MDA-MB-231 cells),effect on proliferation of MDA-MB-231 cells (MDA-MB-231 cells),Kd [1],proteins selectively pulled-down (not pulled-down by the control probe) [2],binding to fully paired RNA (U bulge converted to AU base pair) [3],enrichment of protein or DNA targets compared to the control probe [4]
CCOC(=O)C1=C(Nc2ccccc2)S/C(=C\c2ccc(OCCOCCOCCOCCNC(=O)CCC(=O)N(C)[C@H]3CC[C@@H](c4ccc(Cl)c(Cl)c4)c4ccccc43)c(O)c2)C1=O [Compound F1-RIBOTAC],enhanced activity,dose-dependently reduced proliferation,11 ± 5 µM,–,–,–
C#CCCC1(CCC(=O)N(C)[C@H]2CC[C@@H](c3ccc(Cl)c(Cl)c3)c3ccccc32)N=N1 [Compound F1],–,–,–,79 proteins,no detectable binding,No significant enrichment
